Assay results taken from ChEMBL document CHEMBL1201862, “PubChem BioAssay data set” (2004).
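Step 1: Grow cells in 96-well plates. Step 2: Expose to compound for 48 hours at 5 concentrations. Step 3: Interpolate endpoints linearly; if unreached, use highest concentration. GI50: concentration for 50% inhibition of growth.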 Activity calls are given as the source filed them. Rule as the data show it: active = GI50 up to about 1.1 µM and inactive = higher.

Key:
Experiment in all cases: NCI anticancer screen, dose series, 48 h
[1] = system: UACC-62
[2] = system: SNB-75
[3] = system: SW-620
[4] = system: XF498
[5] = system: DMS-273
[6] = system: DLD-1
[7] = system: NCI-H460
[8] = system: HOP-62
[9] = system: DMS-114
[10] = system: M19-MEL
[11] = system: OVCAR-5
[12] = system: SF-539
[13] = system: SK-MEL-2
[14] = system: SF-268
[15] = system: A549
[16] = system: HT-29
[17] = system: MOLT-4
[18] = system: UACC-257
[19] = system: NCI-H226
[20] = system: SR
[21] = system: EKVX
[22] = system: SF-295
[23] = system: LOX IMVI
[24] = system: SK-MEL-5
[25] = system: SNB-19
[26] = system: HCT-15
[27] = system: Malme-3M
[28] = system: CCRF-CEM
[29] = system: KM12
[30] = system: CAKI-1
[31] = system: 786-0
[32] = system: NCI-H23
[33] = system: RXF 393
[34] = system: ACHN
[35] = system: SK-MEL-28
[36] = system: KM-20L2
[37] = system: HCT-116
[38] = system: M14
[39] = system: HL-60
[40] = system: TK-10
[41] = system: LXFL 529
[42] = system: IGROV-1
[43] = system: OVCAR-8
[44] = system: HOP-92
[45] = system: HCC 2998
[46] = system: UO-31
[47] = system: HOP-18
[48] = system: RPMI-8226
[49] = system: OVCAR-4
[50] = system: SNB-78
[51] = system: OVCAR-3
[52] = system: RXF 631
[53] = system: K562
[54] = system: SN12C
[55] = system: A498
[56] = system: COLO 205
[57] = system: U-251

In the case of C/C(CCn1[nH]c(=O)ccc1=O)=N\Nc1ccc([N+](=O)[O-])cc1[N+](=O)[O-], the GI50 [1] is reported as 5.9 µM (inactive), the GI50 [2] is reported as > 100 µM (inactive) and the GI50 [3] is reported as > 100 µM (inactive). For the same compound, the GI50 [4] was > 100 µM (inactive), the GI50 [5] was 25.4 µM (inactive) and the GI50 [6] was > 100 µM (inactive). For the same compound, the GI50 [7] was 37 µM (inactive), the GI50 [8] was > 100 µM (inactive) and the GI50 [9] was 81.8 µM (inactive). For the same compound, the GI50 [10] was > 100 µM (inactive), the GI50 [11] was > 100 µM (inactive) and the GI50 [12] was 95.5 µM (inactive). For the same compound, the GI50 [13] was > 100 µM (inactive), the GI50 [14] was > 100 µM (inactive) and the GI50 [15] was > 100 µM (inactive). The GI50 [16] was > 100 µM (inactive), the GI50 [17] was > 100 µM (inactive) and the GI50 [18] was > 100 µM (inactive). For the same compound, the GI50 [19] was > 100 µM (inactive), the GI50 [20] was > 100 µM (inactive) and the GI50 [21] was > 100 µM (inactive). The GI50 [22] was 20.5 µM (inactive), the GI50 [23] was 26.8 µM (inactive) and the GI50 [24] was 41.8 µM (inactive). For the same compound, the GI50 [25] was > 100 µM (inactive), the GI50 [26] was 23.6 µM and the GI50 [27] was > 100 µM (inactive). For the same compound, the GI50 [28] was > 100 µM (inactive), the GI50 [29] was 33.5 µM (inactive) and the GI50 [30] was > 100 µM (inactive). For the same compound, the GI50 [31] was > 100 µM (inactive), the GI50 [32] was > 100 µM (inactive) and the GI50 [33] was > 100 µM (inactive). For the same compound, the GI50 [34] was 90.8 µM (inactive), the GI50 [35] was > 100 µM (inactive) and the GI50 [36] was 33.7 µM (inactive). For the same compound, the GI50 [37] was > 100 µM (inactive), the GI50 [38] was 26 µM (inactive) and the GI50 [39] was > 100 µM (inactive). For the same compound, the GI50 [40] was > 100 µM (inactive), the GI50 [41] was 14.6 µM (inactive) and the GI50 [42] was > 100 µM (inactive). For the same compound, the GI50 [43] was 93.1 µM (inactive), the GI50 [44] was > 100 µM (inactive) and the GI50 [45] was > 100 µM (inactive). For the same compound, the GI50 [46] was 12.7 µM (inactive), the GI50 [47] was > 100 µM (inactive) and the GI50 [48] was > 100 µM (inactive). For the same compound, the GI50 [49] was > 100 µM (inactive), the GI50 [50] was > 100 µM (inactive) and the GI50 [51] was > 100 µM (inactive). For the same compound, the GI50 [52] was > 100 µM (inactive), the GI50 [53] was 20.6 µM (inactive) and the GI50 [54] was > 100 µM (inactive). The GI50 [55] was > 100 µM (inactive).
For O=C(Nc1nc2ccc([N+](=O)[O-])cc2s1)C(=O)C(C(=O)c1ccncc1)C1OC(=O)c2ccccc21 (stereo not drawn), the GI50 [1] was > 100 µM (inactive), the GI50 [56] was > 100 µM (inactive) and the GI50 [2] was 33.9 µM (inactive). The GI50 [3] was > 100 µM (inactive), the GI50 [4] was > 100 µM (inactive) and the GI50 [5] was > 100 µM (inactive). For the same compound, the GI50 [6] was > 100 µM (inactive), the GI50 [8] was > 100 µM (inactive) and the GI50 [9] was > 100 µM (inactive). For the same compound, the GI50 [10] was > 100 µM (inactive), the GI50 [11] was > 100 µM (inactive) and the GI50 [14] was > 100 µM (inactive). For the same compound, the GI50 [15] was > 100 µM (inactive), the GI50 [16] was > 100 µM (inactive) and the GI50 [17] was > 100 µM (inactive). For the same compound, the GI50 [18] was > 100 µM (inactive), the GI50 [19] was > 100 µM (inactive) and the GI50 [20] was > 100 µM (inactive). The GI50 [21] was 92.5 µM (inactive), the GI50 [25] was > 100 µM (inactive) and the GI50 [26] was over 100 µM. The GI50 [27] was > 100 µM (inactive), the GI50 [28] was > 100 µM (inactive) and the GI50 [29] was > 100 µM (inactive). The GI50 [30] was > 100 µM (inactive), the GI50 [31] was > 100 µM (inactive) and the GI50 [32] was > 100 µM (inactive). For the same compound, the GI50 [33] was > 100 µM (inactive), the GI50 [34] was > 100 µM (inactive) and the GI50 [36] was > 100 µM (inactive). The GI50 [37] was > 100 µM (inactive), the GI50 [38] was > 100 µM (inactive) and the GI50 [39] was > 100 µM (inactive). The GI50 [41] was > 100 µM (inactive), the GI50 [42] was > 100 µM (inactive) and the GI50 [43] was > 100 µM (inactive). For the same compound, the GI50 [44] was > 100 µM (inactive), the GI50 [45] was > 100 µM (inactive) and the GI50 [57] was > 100 µM (inactive). For the same compound, the GI50 [47] was 42.7 µM (inactive), the GI50 [48] was > 100 µM (inactive) and the GI50 [49] was > 100 µM (inactive). The GI50 [50] was > 100 µM (inactive), the GI50 [51] was > 100 µM (inactive) and the GI50 [52] was > 100 µM (inactive). For the same compound, the GI50 [53] was > 100 µM (inactive), the GI50 [54] was > 100 µM (inactive) and the GI50 [55] was 48.6 µM (inactive).
